Target: Genome polyprotein (Hepatitis C virus genotype 1a (isolate H77), UniProt P27958)
Assay: HCV Replicon Assay Luciferase
Conditions: 37 °C
Experimental: Briefly, replicon cells are seeded at 7,000 cells per well in 90 ul DMEM (without phenol red, Invitrogen Cat. #31053-036) per well with 10% FCS, 1% non-essential amino acids, 1% of Glutamax and 1% of 100 penicillin/streptomycin and incubated overnight at 37° C., 5% CO2, 100% relative humidity. 16-20 h after seeding cells, test compounds previously solubilized and titrated in dimethyl sulfoxide ( DMSO") from each X plate and Y plate are diluted 1:100 in DMEM (without phenol red, Invitrogen Cat. #31053-036) with 10% FCS, 1% non-essential amino acids, 1% of Glutamax and 1% of 100 penicillin/streptomycin and added directly to the 96-well plate containing cells and growth medium at a 1:10 dilution for a final dilution of compound and DMSO of 1:1000 ([…]). Drug treated cells are incubated at 37° C., 5% CO2, 100% relative humidity for 72 hours before performing a luciferase assay using 100 ul per well BriteLite Plus (Perkin Elmer) according to the manufacturer's instructions. Data analysis utilizes the method published by Prichard and Shipman (Antiviral Research, 1990. 14:181-205). Using this method, the combination data are analyzed for antagonistic, additive, or synergistic combination effects across the entire combination surface created by the diluted compounds in combination.

Genome polyprotein, sequence (P27958 whole entry): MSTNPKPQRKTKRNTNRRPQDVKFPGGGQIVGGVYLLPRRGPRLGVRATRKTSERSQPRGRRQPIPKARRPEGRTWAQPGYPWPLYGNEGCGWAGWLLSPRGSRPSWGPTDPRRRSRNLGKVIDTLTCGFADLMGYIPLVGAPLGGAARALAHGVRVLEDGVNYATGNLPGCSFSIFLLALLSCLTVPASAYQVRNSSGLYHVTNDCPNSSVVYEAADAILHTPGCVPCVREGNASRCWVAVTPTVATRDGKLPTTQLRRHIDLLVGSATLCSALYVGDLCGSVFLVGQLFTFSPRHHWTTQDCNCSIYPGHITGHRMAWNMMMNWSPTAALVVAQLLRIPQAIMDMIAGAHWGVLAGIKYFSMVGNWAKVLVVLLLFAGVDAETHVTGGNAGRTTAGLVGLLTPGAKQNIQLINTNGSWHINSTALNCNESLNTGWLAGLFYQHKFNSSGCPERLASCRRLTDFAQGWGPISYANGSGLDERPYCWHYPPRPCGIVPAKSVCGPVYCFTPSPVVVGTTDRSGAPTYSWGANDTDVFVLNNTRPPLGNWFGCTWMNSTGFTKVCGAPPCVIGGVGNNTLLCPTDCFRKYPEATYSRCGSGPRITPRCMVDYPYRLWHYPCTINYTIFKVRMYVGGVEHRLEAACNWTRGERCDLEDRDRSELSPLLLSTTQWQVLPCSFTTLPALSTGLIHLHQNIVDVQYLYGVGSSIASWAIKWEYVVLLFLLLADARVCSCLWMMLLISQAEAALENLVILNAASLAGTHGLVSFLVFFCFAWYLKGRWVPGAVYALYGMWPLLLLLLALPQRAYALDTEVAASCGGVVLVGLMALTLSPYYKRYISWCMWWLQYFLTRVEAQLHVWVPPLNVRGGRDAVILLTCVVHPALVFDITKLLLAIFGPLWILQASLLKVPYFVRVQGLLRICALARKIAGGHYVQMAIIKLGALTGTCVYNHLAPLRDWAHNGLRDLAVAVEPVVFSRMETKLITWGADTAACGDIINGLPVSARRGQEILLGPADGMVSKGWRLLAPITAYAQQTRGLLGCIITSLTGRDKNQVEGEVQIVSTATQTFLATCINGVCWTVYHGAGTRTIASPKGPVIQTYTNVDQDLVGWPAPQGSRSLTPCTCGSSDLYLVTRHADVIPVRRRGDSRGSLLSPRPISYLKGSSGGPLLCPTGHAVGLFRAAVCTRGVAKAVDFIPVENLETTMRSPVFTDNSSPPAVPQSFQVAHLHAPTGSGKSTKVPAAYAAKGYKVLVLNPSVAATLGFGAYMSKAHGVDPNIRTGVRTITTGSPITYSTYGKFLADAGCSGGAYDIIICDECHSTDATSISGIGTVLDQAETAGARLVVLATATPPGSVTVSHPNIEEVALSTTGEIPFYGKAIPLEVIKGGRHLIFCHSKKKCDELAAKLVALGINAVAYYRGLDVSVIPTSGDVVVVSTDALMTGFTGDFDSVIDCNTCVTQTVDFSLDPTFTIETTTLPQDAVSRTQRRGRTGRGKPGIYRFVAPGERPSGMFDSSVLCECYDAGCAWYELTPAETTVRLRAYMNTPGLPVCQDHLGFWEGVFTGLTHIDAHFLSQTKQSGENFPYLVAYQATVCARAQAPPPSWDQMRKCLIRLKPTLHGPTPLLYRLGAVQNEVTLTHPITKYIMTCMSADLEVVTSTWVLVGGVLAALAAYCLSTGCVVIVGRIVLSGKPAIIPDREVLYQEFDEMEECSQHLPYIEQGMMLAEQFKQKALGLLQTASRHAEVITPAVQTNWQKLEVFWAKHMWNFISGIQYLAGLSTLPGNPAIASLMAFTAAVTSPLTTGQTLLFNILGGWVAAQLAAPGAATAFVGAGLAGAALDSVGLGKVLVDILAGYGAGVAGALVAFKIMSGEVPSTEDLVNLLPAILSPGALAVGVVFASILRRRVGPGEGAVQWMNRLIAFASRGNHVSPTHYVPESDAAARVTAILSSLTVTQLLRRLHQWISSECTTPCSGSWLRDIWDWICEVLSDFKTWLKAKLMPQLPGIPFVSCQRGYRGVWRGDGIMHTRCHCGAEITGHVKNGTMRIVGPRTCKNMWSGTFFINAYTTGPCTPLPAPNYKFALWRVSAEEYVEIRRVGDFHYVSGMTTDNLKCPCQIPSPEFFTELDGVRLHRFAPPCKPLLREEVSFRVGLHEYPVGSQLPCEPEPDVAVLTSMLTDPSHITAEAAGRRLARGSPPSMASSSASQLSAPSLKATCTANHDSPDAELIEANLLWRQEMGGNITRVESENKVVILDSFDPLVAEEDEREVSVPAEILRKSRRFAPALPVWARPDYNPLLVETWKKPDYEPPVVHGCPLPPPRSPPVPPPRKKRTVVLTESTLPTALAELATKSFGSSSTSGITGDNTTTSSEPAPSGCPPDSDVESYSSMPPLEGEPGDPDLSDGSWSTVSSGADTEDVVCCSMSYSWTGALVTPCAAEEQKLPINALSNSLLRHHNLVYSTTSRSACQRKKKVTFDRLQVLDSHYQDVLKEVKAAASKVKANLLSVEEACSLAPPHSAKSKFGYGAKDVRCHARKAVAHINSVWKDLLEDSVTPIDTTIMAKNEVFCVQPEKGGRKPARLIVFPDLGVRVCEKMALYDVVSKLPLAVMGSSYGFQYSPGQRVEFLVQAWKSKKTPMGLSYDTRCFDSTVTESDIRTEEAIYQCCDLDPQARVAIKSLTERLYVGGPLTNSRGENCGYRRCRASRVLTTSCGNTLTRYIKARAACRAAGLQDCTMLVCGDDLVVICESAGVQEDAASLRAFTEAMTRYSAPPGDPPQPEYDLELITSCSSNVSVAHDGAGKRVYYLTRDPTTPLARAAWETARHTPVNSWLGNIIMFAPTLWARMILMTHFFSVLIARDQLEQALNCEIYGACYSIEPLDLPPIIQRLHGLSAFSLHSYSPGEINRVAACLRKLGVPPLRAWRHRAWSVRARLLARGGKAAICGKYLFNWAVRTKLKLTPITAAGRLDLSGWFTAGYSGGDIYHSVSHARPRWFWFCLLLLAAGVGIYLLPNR

Row | SMILES | EC50
1 | C/C=C/C[C@@H](C)C(=O)[C@@H]1NC(=O)[C@H](C(C)C)N(C)C(=O)[C@H](CC(C)C)N(C)C(=O)[C@H](CC(C)C)N(C)C(=O)[C@@H](C)NC(=O)[C@H](C)NC(=O)[C@H](CC(C)C)N(C)C(=O)[C@H](C(C)C)NC(=O)[C@H](C(C)(C)CNC)N(C)C(=O)[C@@H](C)N(C)C(=O)[C@H](CC)NC1=O [US9669095, 1] | in the range around 0.055 µM
2 | CCCC[C@@H](C)C(=O)[C@@H]1NC(=O)[C@H](C(C)C)N(C)C(=O)[C@H](CC(C)C)N(C)C(=O)[C@H](CC(C)C)N(C)C(=O)[C@@H](C)NC(=O)[C@H](C)NC(=O)[C@H](CC(C)C)N(C)C(=O)[C@H](C(C)C)NC(=O)[C@H](C(C)(C)CO)N(C)C(=O)[C@@H](C)N(C)C(=O)[C@H](CC)NC1=O [US9669095, 2] | in the range around 0.055 µM
3 | CCCC[C@@H](C)C(=O)[C@@H]1NC(=O)[C@H](C(C)C)N(C)C(=O)[C@H](CC(C)C)N(C)C(=O)[C@H](CC(C)C)N(C)C(=O)[C@@H](C)NC(=O)[C@H](C)NC(=O)[C@H](CC(C)C)N(C)C(=O)[C@H](C(C)C)NC(=O)[C@H](C(C)(C)COC(=O)NC)N(C)C(=O)[C@@H](C)N(C)C(=O)[C@H](CC)NC1=O [US9669095, 3] | in the range around 0.055 µM
4 | CCCC[C@@H](C)C(=O)[C@@H]1NC(=O)[C@H](C(C)C)N(C)C(=O)[C@H](CC(C)C)N(C)C(=O)[C@H](CC(C)C)N(C)C(=O)[C@@H](C)NC(=O)[C@H](C)NC(=O)[C@H](CC(C)C)N(C)C(=O)[C@H](C(C)C)NC(=O)[C@H](C(C)(C)COC(=O)N(C)C)N(C)C(=O)[C@@H](C)N(C)C(=O)[C@H](CC)NC1=O [US9669095, 4] | in the range around 0.055 µM
5 | C/C=C/C[C@@H](C)C(=O)[C@@H]1NC(=O)[C@H](C(C)C)N(C)C(=O)[C@H](CC(C)C)N(C)C(=O)[C@H](CC(C)C)N(C)C(=O)[C@@H](C)NC(=O)[C@H](C)NC(=O)[C@H](CC(C)C)N(C)C(=O)[C@H](C(C)C)NC(=O)[C@H](C(C)(C)COC(=O)NC)N(C)C(=O)[C@@H](C)N(C)C(=O)[C@H](CC)NC1=O [US9669095, 5] | in the range around 0.055 µM
6 | CC[C@@H]1NC(=O)[C@H](C(=O)[C@H](C)CCCCCN2CCOCC2)NC(=O)[C@@H](C(C)C)N(C)C(=O)[C@H](CC(C)C)N(C)C(=O)[C@H](CC(C)C)N(C)C(=O)[C@@H](C)NC(=O)[C@H](C)NC(=O)[C@@H](CC(C)C)N(C)C(=O)[C@H](C(C)C)NC(=O)[C@H](C(C)(C)CN(C)C(=O)OC)N(C)C(=O)[C@@H](C)N(C)C1=O [US9669095, 6] | in the range around 0.055 µM
7 | CC[C@@H]1NC(=O)[C@H](C(=O)[C@H](C)CCCCCSc2nnnn2C)NC(=O)[C@H](C(C)C)N(C)C(=O)[C@H](CC(C)C)N(C)C(=O)[C@H](CC(C)C)N(C)C(=O)[C@@H](C)NC(=O)[C@H](C)NC(=O)[C@H](CC(C)C)N(C)C(=O)[C@H](C(C)C)NC(=O)[C@H](C(C)(C)CN(C)C(=O)OC)N(C)C(=O)[C@@H](C)N(C)C1=O [US9669095, 7] | in the range around 0.055 µM
8 | CC[C@@H]1NC(=O)[C@H](C(=O)[C@H](C)CCCCCN2CCOCC2)NC(=O)[C@H](C(C)C)N(C)C(=O)[C@H](CC(C)C)N(C)C(=O)[C@H](CC(C)C)N(C)C(=O)[C@@H](C)NC(=O)[C@H](C)NC(=O)[C@H](CC(C)C)N(C)C(=O)[C@H](C(C)C)NC(=O)[C@H](C(C)(C)CN(C)C(=O)[C@@H](NC(=O)OC)C(C)C)N(C)C(=O)[C@@H](C)N(C)C1=O [US9669095, 8] | in the range around 0.055 µM
9 | CC[C@@H]1NC(=O)[C@H](C(=O)[C@H](C)CCCCCSc2nnnn2C)NC(=O)[C@@H](C(C)C)N(C)C(=O)[C@H](CC(C)C)N(C)C(=O)[C@H](CC(C)C)N(C)C(=O)[C@@H](C)NC(=O)[C@H](C)NC(=O)[C@@H](CC(C)C)N(C)C(=O)[C@H](C(C)C)NC(=O)[C@H](C(C)(C)CN(C)C(=O)[C@@H](NC(=O)OC)C(C)C)N(C)C(=O)[C@@H](C)N(C)C1=O [US9669095, 9] | in the range around 0.055 µM
10 | C/C=C/C[C@@H](C)C1ON2C(=O)[C@H](C(C)C)N(C)C(=O)[C@H](CC(C)C)N(C)C(=O)[C@@H](CC(C)C)N(C)C(=O)[C@@H](C)NC(=O)[C@H](C)NC(=O)[C@H](CC(C)C)N(C)C(=O)[C@H](C(C)C)NC(=O)[C@H](C(C)(C)COC(=O)NS(C)(=O)=O)N(C)C(=O)[C@@H](C)N(C)C(=O)[C@H](CC)NC(=O)[C@H]12 (stereo partly drawn) [US9669095, 11] | > 1 µM
11 | C/C=C/C[C@@H](C)C1ON2C(=O)[C@H](C(C)C)N(C)C(=O)[C@H](CC(C)C)N(C)C(=O)[C@@H](CC(C)C)N(C)C(=O)[C@@H](C)NC(=O)[C@H](C)NC(=O)[C@H](CC(C)C)N(C)C(=O)[C@H](C(C)C)NC(=O)[C@H](C(C)(C)COC(=O)NS(=O)(=O)c3ccccc3)N(C)C(=O)[C@@H](C)N(C)C(=O)[C@H](CC)NC(=O)[C@H]12 (stereo partly drawn) [US9669095, 12] | in the range around 0.55 µM
12 | C/C=C/C[C@@H](C)C1ON2C(=O)[C@H](C(C)C)N(C)C(=O)[C@H](CC(C)C)N(C)C(=O)[C@@H](CC(C)C)N(C)C(=O)[C@@H](C)NC(=O)[C@H](C)NC(=O)[C@H](CC(C)C)N(C)C(=O)[C@H](C(C)C)NC(=O)[C@H](C(C)(C)CN(C)C(=O)NS(C)(=O)=O)N(C)C(=O)[C@@H](C)N(C)C(=O)[C@H](CC)NC(=O)[C@H]12 (stereo partly drawn) [US9669095, 13] | in the range around 0.55 µM
13 | C/C=C/C[C@@H](C)C1ON2C(=O)[C@H](C(C)C)N(C)C(=O)[C@H](CC(C)C)N(C)C(=O)[C@@H](CC(C)C)N(C)C(=O)[C@@H](C)NC(=O)[C@H](C)NC(=O)[C@H](CC(C)C)N(C)C(=O)[C@H](C(C)C)NC(=O)[C@H](C(C)(C)CN(C)C(=O)NS(=O)(=O)c3ccccc3)N(C)C(=O)[C@@H](C)N(C)C(=O)[C@H](CC)NC(=O)[C@H]12 (stereo partly drawn) [US9669095, 14] | in the range around 0.55 µM

Source: BindingDB's records for patent US9669095 (Enanta Pharmaceuticals, 2017)
